This is an account of results in PMC12223813, “Antiproliferative and Trypanocidal Activity of Ivermectin Bioconjugates” (ACS Omega, 2025).

Data set [1] relates to human promyelocytic leukemia HL-60 cells. Description: Cytotoxic activity, resazurin cell viability assay. The following applies: 72 h total (24 h + 48 h with resazurin), mean ± SD of three independent experiments. The class given is cell-based. As to the method: (§1) The trypanocidal and cytotoxic activities of the newly synthesized IVR bioconjugates and their conjugation partners were determined for bloodstream forms of T. brucei brucei and human myeloid HL-60 cells in vitro using the resazurin cell viability assay as previously described.
(§2) Test compounds were assayed at 10-fold dilutions ranging from 100 μM to 1 nM in the presence of 0.9% DMSO. Controls were grown in the culture medium containing only 0.9% DMSO. The assays were cultured in an incubator at 37 °C in a humidified atmosphere containing 5% CO2. After 24 h incubation, 20 μL of 0.5 mM resazurin (prepared in sterile PBS) was added, and the cultures were grown for another 48 h. Then, the proliferation of the cells was determined by measuring the absorbance at 570 nm (test wavelength) and 630 nm (reference wavelength) using a microplate reader.

Data set [2] deals with PC3, human metastatic prostate cancer cell line. Description: Antiproliferative activity, MTT assay. The class given is cell-based. The following applies: for IC50: Homo sapiens, 72 h, MTT, mean ± SD; for PC3 SI: SI = IC50 HaCaT/IC50 PC3. As to the method: (§3) Additionally, to assess the selectivity of these compounds toward cancer cells, we included an immortalized keratinocyte cell line from adult human skin (HaCaT) in the antiproliferative activity tests. Doxorubicin served as the reference anticancer drug.
(§4) The culture media were enriched with 10% fetal bovine serum (FBS, Sigma-Aldrich, St. Louis, MO, USA), 20 mM HEPES (Biowest, Nuaillé, France), and antibiotics (100 U/mL penicillin and 100 μg/mL streptomycin) obtained from Gibco (Grand Island, NY, USA). The cells were maintained in a humidified incubator at 37 °C with 5% CO2 until they reached 80–90% confluence, after which they were used for further experiments.
(§5) To assess the cytotoxicity, the cells (0.5 × 10^4/well) were plated in 96-well plates and allowed to adhere for 24 h. The MTT (3-(4,5-dimethylthiazol-2-yl)-2,5-diphenyltetrazolium bromide) assay was used to evaluate the cytotoxic effects of IVR bioconjugates on all tested cell lines. After 24 h incubation, cells were exposed to varying concentrations (1 to 100 μM) of the test compounds for 72 h. Following the treatment, the medium was discarded, and a 0.5 mg mL^–1 MTT solution was added to each well and incubation was continued for another 4 h. Mitochondrial enzyme activity facilitated the formation of formazan crystals, which were subsequently dissolved in DMSO-isopropanol (1:1, v/v), producing a violet-colored solution. A 100 μL aliquot of this solution was transferred to the well, and absorbance was recorded at 570 nm using a MultiscanGo spectrophotometer (ThermoFisher Scientific, Carlsbad, CA, USA).
(§6) Cytotoxicity was quantified by comparing the absorbance of the treated cells to that of untreated controls using the formula: [A]/[B] × 100, where [A] represents the absorbance of the treated sample and [B] corresponds to the absorbance of the control sample. A decrease in MTT levels reflects a decrease in cell viability.

Data set [3] deals with A549, human lung cancer cell line. Description: Antiproliferative activity, MTT assay. The data set is classed as cell-based. The following applies: for IC50: Homo sapiens, A549, 72 h, MTT, mean ± SD; for A549 SI: SI = IC50 HaCaT/IC50 A549. As to the method: as §3, §4, §5, §6
(Formazan colour is commonly taken as a measure of viable cells.)

Data set [4] relates to HCT-116, human primary colon cancer cell line. Description: Antiproliferative activity, MTT assay. The note with it: for IC50: Homo sapiens, HCT-116, 72 h, MTT, mean ± SD; for HCT-116 SI: SI = IC50 HaCaT/IC50 HCT-116. The class given is cell-based. As to the method:
as §3, §4, §5, §6

The subject of data set [5] is MDA-MB-231, human triple-negative breast cancer cell line. Description: Antiproliferative activity, MTT assay. The class given is cell-based. The following applies: for IC50: Homo sapiens, MDA-MB-231, 72 h, MTT, mean ± SD; for MDA-MB-231 SI: SI = IC50 HaCaT/IC50 MDA-MB-231. As to the method: as §3, §4, §5, §6
Data set [6] is described as follows: in vitro. The note with it: human. As to the method:
as §1, §2

In data set [7] the test system is bloodstream forms of T. b. brucei (427-221a clone). Description: microbe, parasite or virus in culture. The following applies: for selectivity GI50 ratio: GI50(HL-60)/GI50(T. brucei); for GI50: Trypanosoma brucei, 72 h, read-out: T. brucei GI50, bloodstream forms, 72 h total (24 h + 48 h with resazurin), mean ± SD of three independent experiments. As to the method: as §1, §2
(Alamar Blue is a resazurin reagent that responds to reducing activity.)

For data set [8], the system named is HaCaT, human immortalized keratinocyte cell line. Description: Cytotoxicity toward normal cells, MTT assay. The class given is cell-based. The following applies: 72 h, mean ± SD. As to the method: as §3, §4, §5, §6

Bounds are passed on as bounds.

As a reminder, the GI50 is the concentration giving 50% growth inhibition. As a reminder, the IC50 is the midpoint of a concentration-inhibition curve. With `CCC(C)C1OC2(CCC1C)CC1CC(CC=C(C)C(OC(=O)Cn3cc(COC(=O)CCC(=O)OC4OC5OC6(C)CCC7C(C)CCC(C4C)C57OO6)nn3)C(C)C=CC=C3COC4C(O)C(C)=CC(C(=O)O1)C34O)O2` (stereo not drawn) [compound 16, Ivermectin–Artesunate Conjugate], the GI50 in data set [1] worked out at 18 ± 6 µM. Also, in data set [2], the IC50 amounted to 20.8 ± 7.2 µM and the “PC3 SI” value is more than 4.8. Also, in data set [3], the IC50 was 3.8 ± 1.3 µM and the “A549 SI” value is more than 26.3. Also, in data set [4], the IC50 amounted to 4.5 ± 0.6 µM and the “HCT-116 SI” value is listed as more than 22.2. Also, in data set [5], the IC50 is 13 ± 4.1 µM and the “MDA-MB-231 SI” value is listed as more than 7.7. In addition, the selectivity ratio in data set [6] is more than 256. Also, the “selectivity GI50 ratio” value in data set [7] was 46.2. For the same compound, in data set [7] (relative to IVR GI50), the “antitrypanosomal activity, times stronger than IVR” value was 7 times. For the same compound, in data set [7] (relative to artesunate GI50), the “antitrypanosomal activity, times stronger than artesunate” value is 9 times. The IC50 in data set [8] is more than 100 µM.
For `C[C@H]1[C@H](OC(=O)CCC(=O)O)O[C@@H]2O[C@@]3(C)CC[C@H]4[C@H](C)CC[C@@H]1[C@@]24OO3` [artesunate, reference compound], the GI50 in data set [1] came out at 30.8 ± 9 µM. Besides, in data set [2], the IC50 was found to be 48.5 ± 5.7 µM and the “PC3 SI” value stood at 0.1. Besides, in data set [3], the IC50 was determined as 24 ± 6.9 µM and the “A549 SI” value came out at 0.2. In data set [4], it took 37.8 ± 4.2 µM to reach half-maximal inhibition (IC50) and the “HCT-116 SI” value is listed as 0.2. Besides, in data set [5], it took 12.6 ± 3.9 µM to reach half-maximal inhibition (IC50) and the “MDA-MB-231 SI” value is given as 0.5. Also, in data set [7], the “selectivity GI50 ratio” value is given as 8.6 and the GI50 was 3.6 ± 0.2 µM. In data set [8], the IC50 was found to be 5.7 ± 0.1 µM.
Turning to `C=C[C@H]1C[N@@]2CC[C@H]1C[C@H]2[C@H](O)c1ccnc2ccc(OC)cc12` [quinine, reference compound], the GI50 in data set [1] was more than 100 µM; in data set [7] it was 1.1 ± 0.3 µM. For the same compound, the IC50 in data set [2] was 56.3 ± 7.2 µM; in data set [3], 56.4 ± 3.2 µM; in data set [4], 32.8 ± 3.8 µM; in data set [5], 54.4 ± 7 µM; in data set [8] it was more than 100 µM.
`C=C[C@H]1C[N@@]2CC[C@H]1C[C@@H]2[C@@H](O)c1ccnc2ccccc12` [cinchonine, reference compound]: the GI50 in data set [1] was more than 100 µM. Further, in data set [2], half-maximal inhibition (IC50) required 74.3 ± 5.4 µM and the “PC3 SI” value is more than 1.3. In addition, in data set [3], the IC50 was more than 100 µM and the “A549 SI” value is listed as “∼1.0”. In addition, in data set [4], 78.2 ± 5.8 µM corresponded to half-maximal inhibition (IC50) and the “HCT-116 SI” value was more than 1.3. In data set [5], the IC50 amounted to 65.3 ± 2.8 µM and the “MDA-MB-231 SI” value was more than 1.5. In addition, in data set [7], the “selectivity GI50 ratio” value is listed as more than 58.8 and the GI50 is 1.7 ± 0.6 µM. In data set [8], this compound returned an IC50 of more than 100 µM.
As for `O=c1[nH]c(=O)n([C@H]2C[C@H](O)[C@@H](CO)O2)cc1F` [floxuridine, reference compound], the GI50 was more than 100 µM in data set [1] and 2.2 ± 0.4 µM in data set [7]. The IC50 in data set [2] worked out at 15.7 ± 3.3 µM; in data set [3] it was 26.4 ± 3.8 µM; in data set [4] it was 11.7 ± 4.2 µM; in data set [5] it was 22.2 ± 3.4 µM; in data set [8], 24.3 ± 7.3 µM. For the same compound, the “PC3 SI” value in data set [2] was determined as 1.5. The “A549 SI” value in data set [3] stood at 0.9. Further, the “HCT-116 SI” value in data set [4] was 2.1. The “MDA-MB-231 SI” value in data set [5] is 1.1. Besides, the “selectivity GI50 ratio” value in data set [7] is recorded as more than 45.5.
`C=C[C@H]1CN2CC[C@H]1C[C@H]2[C@H](OC(=O)O[C@@H]1/C(C)=C/C[C@@H]2C[C@@H](C[C@]3(CC[C@H](C)[C@@H]([C@@H](C)CC)O3)O2)OC(=O)[C@@H]2C=C(C)[C@@H](O)[C@H]3OC/C(=C\C=C\[C@@H]1C)[C@]32O)c1ccnc2ccccc12` [compound 7, Ivermectin–Cinchonidine Conjugate]: the GI50 in data set [1] turned out to be 47.2 ± 3.7 µM; in data set [7] it was 2.3 ± 0.3 µM. Further, the IC50 turned out to be 7.2 ± 3.8 µM in data set [2]; 13.6 ± 1.1 µM in data set [3]; 20.1 ± 3.7 µM in data set [4]; 22.4 ± 1.2 µM in data set [5]; 50.3 ± 4.9 µM in data set [8]. In addition, the “PC3 SI” value in data set [2] is 7.0. Also, the “A549 SI” value in data set [3] came to 3.7. Also, in data set [4], the “HCT-116 SI” value turned out to be 2.5. Besides, the “MDA-MB-231 SI” value in data set [5] is on record as 2.2. Also, in data set [7], the “selectivity GI50 ratio” value was 20.5.
Consider `Cc1cn([C@H]2C[C@H](N=[N+]=[N-])[C@@H](CO)O2)c(=O)[nH]c1=O` [azidothymidine, reference compound], for which, in data set [1], the GI50 is more than 100 µM. In addition, in data set [2], the IC50 amounted to 64.3 ± 3.7 µM and the “PC3 SI” value was more than 1.6. For the same compound, in data set [3], the IC50 turned out to be 72.1 ± 11.6 µM and the “A549 SI” value is listed as more than 1.4. Also, in data set [4], half-maximal inhibition (IC50) required 60.2 ± 9.7 µM and the “HCT-116 SI” value was more than 1.7. In data set [5], the IC50 was determined as 52.2 ± 4.1 µM and the “MDA-MB-231 SI” value is more than 1.9. Further, in data set [7], the “selectivity GI50 ratio” value is more than 5.2 and the GI50 was more than 10 µM. Besides, in data set [8], the IC50 was more than 100 µM.
